Test results taken from patent US20140038920A1, “TFEB PHOSPHORYLATION INHIBITORS AND USES THEREOF” (FONDAZIONE TELETHON, priority 2011, published 2014).

test system: TFEB; test: TFEB molecular weight shift and localization in TFEB-3xFLAG HeLa cells stimulated with amino-acid rich medium plus inhibitor (FIG. 19B); type: cell-based; conditions: Torin 1 250 nM, Rapamycin 2.5 μM, U0126 50 μM
Description: (§1) FIG. 19 mTORC1 regulates TFEB. (A) Lysosomal stress inhibits mTOR signaling. Immunoblotting of protein extracts isolated from HeLa cells treated overnight, as indicated. Membranes were probed with antibodies for p-T202/Y204-ERK1/2, ERK1/2, p-T389-S6K, and S6K to measure ERK and mTORC1 activities. […] FLAG immunoblotting of cytosolic and nuclear fractions isolated from TFEB-3×FLAG HeLa cells cultured in amino acid-free media and subsequently stimulated as indicated for at least 3 h. Correct subcellular fractionation was verified with H3 and tubulin antibodies. (C, D) Effects and dose—response curves of ERK and mTOR inhibitors on TFEB nuclear translocation. […] After 3 h at 37° C. in RPMI medium containing one of each of the compounds, the cells were washed, fixed, and stained with DAPI and photographed by using confocal automated microscopy (Opera high content system, Perkin Elmer). (C) Representative images of test concentrations for each compound. Scale bars represent 30 μm. […] The EC50 for each compound was calculated using Prism software (see Materials and Methods for details). (E) Amino acids induce TFEB molecular weight shift. Immunoblotting of protein extracts isolated from HEK-293T cells transfected either TFEB-3×FLAG or with an empty vector were nutrient starved and stimulated for 50 minutes with amino acids (a.a.). Antibody used were p-T389-S6K, S6K and FLAG. (F) Rag knockdown induces TFEB nuclear translocation. HeLa cells stably expressing Flag-3×TFEB were infected with lentiviruses encoding a Short hairpin (Sh-) RNA targeting luciferase (control) or RagC and RagD mRNAs. […] TFEB localization was detected with a FLAG antibody, whereas tubulin and H3 were used as controls for the cytosolic and nuclear fraction, respectively; levels of S6K phosphorylation were used to test RagC and RagD knockdown efficiency.
The mouse anti-TFEB monoclonal antibody was purchased from My Biosource catalogue No. MBS 120432. To generate anti-pS142 specific antibodies, rabbits were immunized with the following peptide coupled to KLH: AGNSAPN{pSer}[…]. Following the fourth immunization, rabbits were sacrificed and the serum was collected. Non-phosphospecific antibodies were depleted from the serum by circulation through a column containing the nonphosphorylated antigene. The phosphospecific antibodies were subsequently purified using a column containing the phosphorylated peptide. Cells were lysed with M-PER buffer (Thermo) containing protease and phosphatase inhibitors (Sigma); nuclear/cytosolic fractions were isolated as above described. Proteins were separated by SDS-PAGE (Invitrogen; reduced NuPAGE 4-12% Bis-tris Gel, MES SDS buffer). If needed, the gel was stained using 20 ml Imperial Protein Stain (Thermo Fisher) at room temperature for 1 h and de-stained with water. […]

Compound	TFEB molecular weight shift induced by nutrients
N#CC(=C(/N)Sc1ccccc1N)/C(C#N)=C(\N)Sc1ccccc1N [U0126]	only a partial TFEB molecular weight shift

test system: TFEB; test: High content TFEB-GFP nuclear translocation assay; type: cell-based; conditions: Homo sapiens; TFEB-GFP HeLa cells, 3 h, ten concentrations 2.54 nM to 50 μM (FIG. 19D); read-out: EC50, TFEB nuclear translocation
Description: as §1, with “Immunoblotting” for “FIG. 19 mTORC1 regulates TFEB. (A) Lysosomal stress inhibits mTOR signaling. Immunoblotting”, “antibodies.” for “antibodies. (C, D) Effects and dose—response curves of ERK and mTOR inhibitors on TFEB nuclear translocation.”, “(C) Representative images of test concentrations for each compound.” left out, “(E) Amino acids induce TFEB molecular weight shift. Immunoblotting of protein extracts isolated from HEK-293T cells transfected either TFEB-3×FLAG or with an empty vector were nutrient starved and stimulated for 50 minutes with amino acids (a.a.).” left out, “(F) Rag knockdown induces TFEB nuclear translocation.” left out
After 3 hours at 37° C. in RPMI medium cells were washed, fixed, and stained with DAPI. For the acquisition of the images, ten pictures per each well of the 384-well plate were taken by using confocal automated microscopy (Opera high content system, Perkin Elmer). A dedicated script was developed to perform the analysis of TFEB localization on the different images (Acapella software, Perkin Elmer). The script calculates the ratio value resulting from the average intensity of nuclear TFEB-GFP fluorescence divided by the average of the cytosolic intensity of TFEB-GFP fluorescence. The results were normalized using negative (RPMI medium) and positive (HBSS starvation) control samples in the same plate. The data are represented by the percentage of nuclear translocation at the different concentrations of each compound using Prism software (GraphPad software). The EC50 for each compound was calculated using non-linear regression fitting (Prism software).
In order to find additional small molecules able to induce the translocation of TFEB from the cytosol to the nucleus, the applicants developed a cell-based high content assay using stable HeLa cells overexpressing TFEB fused to the green fluorescent protein (TFEB-GFP). In the assay imaging of treated cells is acquired by an automated confocal microscope (OPERA system) and the analysis of those images with Acapella image software calculates the ratio of the average of fluorescence intensity of TFEB-GFP between the cytosol and nucleus of the cell (see Materials and methods for details). […] They tested ten concentrations for each inhibitor.

Compound	EC50 [µM]
N#CC(=C(/N)Sc1ccccc1N)/C(C#N)=C(\N)Sc1ccccc1N [U0126]	80.4

same assay, conditions: Homo sapiens; mobilization of cytosolic TFEB to the nucleus; TFEB-GFP HeLa cells, 3 h at 37° C. in RPMI, ten concentrations 50 μM to 2.54 nM, 4 runs; read-out: Average EC50

Compound	EC50 [µM]
CN(C)Cc1cccc(N/C(=C2\C(=O)Nc3cc(C(=O)N(C)C)ccc32)c2ccccc2)c1 [BIX02189]	7 to 15
CC(C)(C)Cn1c(N)nc2ccc(-c3[nH]c(C(C)(C)C)nc3-c3ccc(F)cc3)nc21 [LY2228820]	< 7
CCOc1cc2ncc(C#N)c(Nc3ccc(OCc4ccccn4)c(Cl)c3)c2cc1NC(=O)/C=C/CN(C)C [Neratinib]	> 15
COc1ccc(-c2ccc3c(N4CCOCC4)nc(N4C[C@@H](C)O[C@@H](C)C4)nc3n2)cc1CO [KU0063794]	< 7
Nc1ncnc2c1c(-c1cccc(OCc3ccccc3)c1)cn2C1CC(CN2CCCC2)C1 (stereo in doubt) [NVP-ADW742]	< 7
O=C1c2ccccc2-c2n[nH]c3cccc1c23 [SP600125]	> 15
CNC(=O)c1ccc2c(c1)NC(=O)/C2=C(\Nc1cccc(CN(C)C)c1)c1ccccc1 [BIX 02188]	> 15
C[C@@H](Oc1cc(-n2cnc3ccc(CN4CCN(C)CC4)cc32)sc1C(N)=O)c1ccccc1C(F)(F)F [GSK461364]	< 7
CCN1CCN(C(=O)Cc2ccc(Nc3ncc(F)c(Nc4ccc(C(=O)Nc5ccccc5Cl)cc4)n3)cc2)CC1 [Aurora A inhibitor 1]	< 7
FC(F)c1nc2ccccc2n1-c1nc(N2CCOCC2)nc(N2CCOCC2)n1 [ZSTK474]	< 7
Cc1c[nH]c(-c2cnc(NCCNc3ccc(C#N)cn3)nc2-c2ccc(Cl)cc2Cl)n1 [CHIR99021]	< 7
Oc1cccc(-c2nc(N3CCOCC3)c3oc4ncccc4c3n2)c1 [PI103]	< 7
COc1cc2c(Oc3ccc(NC(=O)C4(C(=O)Nc5ccc(F)cc5)CC4)cc3F)ccnc2cc1OCCCN1CCOCC1 [XL880 (GSK1363089)]	< 7
CC(C)c1cnn2c(NCc3ccccc3)cc(NCCCCCCN)nc12 [BS181]	< 7
COc1cc2nccc(Oc3ccc(NC(=O)Nc4ccc(F)cc4F)c(F)c3)c2cc1OC [Ki8751]	< 7
C[C@@H](Oc1cc(-c2cnn(C3CCNCC3)c2)cnc1N)c1c(Cl)ccc(F)c1Cl [PF-02341066]	< 7
Nc1nc(Nc2ccc(S(N)(=O)=O)cc2)nn1C(=O)c1c(F)cccc1F [JNJ-7706621]	7 to 15
CCN1CCN(Cc2ccc(-c3cc4c(N[C@H](C)c5ccccc5)ncnc4[nH]3)cc2)CC1 [AEE788]	< 7
COc1cc2c(Nc3ccc(Br)cc3F)ncnc2cc1OCC1CCN(C)CC1 [Vandetanib]	< 7
C[C@@H]1CN(CC(=O)Nc2ccc3c(c2)Cc2cccc(-c4cc(=O)cc(N5CCOCC5)o4)c2S3)C[C@H](C)O1 [KU-60019]	> 15
Cc1ccc(S(=O)(=O)Nc2nc3ccccc3nc2Nc2ccc3nsnc3c2)cc1 [XL147]	< 7
O=C1NC(=O)C(Cc2ccc3nccc(-c4ccncc4)c3c2)S1 (stereo not drawn) [GSK1059615]	< 7
COc1cc2c(Oc3ccc4[nH]c(C)cc4c3F)ncnc2cc1OCCCN1CCCC1 [Cediranib (AZD2171), Cediranib]	< 7
Cn1c(=O)n(-c2ccc(C(C)(C)C#N)cc2)c2c3cc(-c4cnc5ccccc5c4)ccc3ncc21 [NVP-BEZ235]	< 7
N#CC(=C(/N)Sc1ccccc1N)/C(C#N)=C(\N)Sc1ccccc1N [drawing 34]	> 15
O=c1cc(-c2cccc3c2Sc2ccccc2S3)oc(N2CCOCC2)c1 [KU-55933]	< 7
CCS(=O)(=O)Nc1ccc2c(c1)/C(=C(/Nc1ccc(CN3CCCCC3)cc1)c1ccccc1)C(=O)N2 [Hesperadin]	7 to 15

test system: TFEB; test: TFEB nuclear localization in starved HeLa cells overexpressing TFEB, re-stimulated with media plus supplements or inhibitors (nuclear fractionation, Flag blot, immunofluorescence); type: cell-based; conditions: EBSS media supplemented with growth factor or cytokine (FIG. 2f)
Description: (A) Scatter Plot graphs displaying the logarithmic value of the fold change differences in the relative expression levels of 51 autophagy-related genes in HeLa cells cultured in different conditions. X-axis=control group. Y-axis=treated group. Circles represent genes with increased (red) or decreased (green) fold change. Comparisons were as indicated. (B) Chromatin immunoprecipitation (ChIP) analysis. […] Values were normalized to the input and plotted as relative enrichment over a mock control. Experiments were performed in triplicate. (C) qPCR analysis of TFEB-target gene expression in normal, starved, and in TFEB-siRNA starved cells. GAPDH and HPRT represents housekeeping genes, while ATG10, ATG9A and ATG4D represent control genes (non-TFEB target genes). (D-F) HeLa cells stably overexpressing TFEB were left untreated or nutrient starved for 4 h. (D) Five fields containing 50-100 cells/each were analyzed for TFEB nuclear localization. […] (E) Cells were subjected to nuclear/cytosolic fractionation and blotted with Flag antibody. H3 and tubulin were used as nuclear and cytosolic markers, respectively. (F) Nuclear fractions were blotted with Flag and H3 (loading control) antibodies. (G) Western blot analysis of Flag, tubulin and H3 in nuclear extracts prepared from normal, starved and starved/stimulated with normal media cells for 1 h (normal) or pretreated with AP-2 (AKT inhibitor), Rapamycin (mTOR inhibitor) and U0126 (MEK inhibitor) 1 h prior to media stimulation. Total extracts were used to verify the efficiency of the inhibitors. […] Starvation was performed where indicated. (All error bars represent standard deviations. T-test (unpaired) p value (*)<0.05, (**)<0.01)
Cytosolic and nuclear fractions were subjected to Flag immunoblotting. […] Error bars represent standard deviations.
Cells were seeded at 50% of confluence in 6 well dishes and serum starved overnight (ON). Normal medium was added the following day either in presence of DMSO or kinase inhibitors. Subcellular fractionation was carried out as previously reported.
To identify the mechanism of starvation-induced activation of TFEB, the applicants analyzed its subcellular localization and post-translational modifications in starved cells.

Compound	TFEB nuclear translocation compared to starved media alone
insulin	significant inhibition
LIF: cytokine supplemented to EBSS media	Almost no effect
EGF: growth factor supplemented to EBSS media (NSDSECPLSHDGYCLHDGVCMYIEALDKYACNCVVGYIGERCQYRDLKWWELR; UniProt P01133 971-1023, looked up)	significant inhibition

same assay, conditions: starved cells stimulated with normal medium supplemented with kinase inhibitor (FIG. 2g, 11b)

Compound	TFEB nuclear localization
N#CC(=C(/N)Sc1ccccc1N)/C(C#N)=C(\N)Sc1ccccc1N [U0126]	TFEB nuclear localization, at level similar to starvation
